The results in this text go back to US20240327430A1 (Breakpoint Therapeutics GmbH, priority 2023, published 2024).

truncated Polθ protein (Polθ-Hel containing the helicase domain (67-894)), sequence (O75417 67-894): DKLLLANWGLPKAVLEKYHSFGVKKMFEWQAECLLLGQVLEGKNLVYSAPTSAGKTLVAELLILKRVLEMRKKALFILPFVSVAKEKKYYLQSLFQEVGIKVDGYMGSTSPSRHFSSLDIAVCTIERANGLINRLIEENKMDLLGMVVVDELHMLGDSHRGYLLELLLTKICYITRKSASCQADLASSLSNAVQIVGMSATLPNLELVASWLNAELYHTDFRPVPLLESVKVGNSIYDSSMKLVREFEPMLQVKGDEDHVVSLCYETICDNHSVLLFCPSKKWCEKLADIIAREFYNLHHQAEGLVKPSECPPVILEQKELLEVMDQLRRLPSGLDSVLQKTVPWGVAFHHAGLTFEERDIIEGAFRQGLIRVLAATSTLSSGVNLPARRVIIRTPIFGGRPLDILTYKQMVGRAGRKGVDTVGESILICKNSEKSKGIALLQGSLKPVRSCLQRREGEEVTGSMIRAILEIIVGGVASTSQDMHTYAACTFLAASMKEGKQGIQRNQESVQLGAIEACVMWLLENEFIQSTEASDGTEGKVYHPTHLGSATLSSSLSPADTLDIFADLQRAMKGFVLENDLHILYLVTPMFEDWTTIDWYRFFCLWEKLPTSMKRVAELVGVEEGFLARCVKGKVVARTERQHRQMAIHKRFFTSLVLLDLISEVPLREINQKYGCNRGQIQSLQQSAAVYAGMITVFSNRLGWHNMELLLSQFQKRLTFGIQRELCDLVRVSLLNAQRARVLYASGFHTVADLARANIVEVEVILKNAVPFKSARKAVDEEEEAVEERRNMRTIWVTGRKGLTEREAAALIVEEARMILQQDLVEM

One assay addresses truncated Polθ protein (Polθ-Hel containing the helicase domain (67-894)) (Homo sapiens (Human), UniProt O75417). Kind of assay: Polθ ATPase assay (Biological Assay 1, ADP-Glo luminescence). The format is biochemical. Particulars: Polθ-Hel 0.5 nM, DNA substrate 500 nM, ATP 60 μM, 23° C.; read-out: Pole ATPase assay IC50. The procedure: The Polθ ATPase assay was used to evaluate inhibitors of Polθ ATPase activity, in vitro. Experiments were performed using a truncated Polθ protein (Polθ-Hel containing the helicase domain (67-894), ATP and a DNA single strand Oligo (5′-CTGTCCTGCATGATG-3′) in the Polθ assay buffer (20 mM Tis-HCl (pH 8.8), MgCl2 5 mM, tween20 0.01%, NP40 0.01%, BSA 0.01%, DTT 1 mM). 2 μL of assay buffer containing Pole-Hel protein (0.5 nM) and DNA substrate (500 nM) was transferred into assay ready plates, containing 0.04 μL of compounds diluted in DMSO. After a 30 minutes incubation at 23° C. in the dark, the reaction was triggered by adding 2 μL of ATP (60 μM), in assay buffer. After 60 minutes at 23° C., 4 μl of ADP-Glo™ Reagent (Glo 1) was added followed by 40 minutes of incubation, then 8 μl of ADP-Glom kinase Detection Reagent (Glo 2) followed by 60 minutes of incubation at 23° C. Luminescence was then measured using Tecan F200 infinite plate reader. Raw data were analysed using GeneData to generate IC50 values.
The Polθ ATPase assay described in Biological Assay 1 above was used to evaluate inhibitors of Polθ ATPase activity for the compounds described in the Experimental Part B above, in vitro.
On the technique in general: ADP-Glo first removes unused ATP, then detects ADP through luciferase.
Turning to `COc1cnc(Cl)cc1-c1cc(C)ncc1C(=O)Nc1nc2cnc(N3CCOCC3)cc2s1` [Example 65, 2′-chloro-5′-methoxy-6-methyl-N-[6-(morpholin-4-yl)-[1,3]thiazolo[4,5-c]pyridin-2-yl]-[4,4′-bipyridine]-3-carboxamide], the IC50 (as a rule, the concentration that inhibits the measured activity by half) is below 0.1 µM. As for `COc1cnc(Cl)cc1-c1cc(C)ncc1C(=O)Nc1nc2cnc(N3CCCCC3)nc2s1` [Example 20, 2′-chloro-5′-methoxy-6-methyl-N-[5-(piperidin-1-yl)-[1,3]thiazolo[5,4-d]pyrimidin-2-yl]-[4,4′-bipyridine]-3-carboxamide], the IC50 was below 0.1 µM.

In the case of `COc1cnc(Cl)cc1-c1cc(C)ncc1C(=O)Nc1nc2cnc(NCCO)nc2s1` [Example 46, 2′-chloro-N-{5-[(2-hydroxyethyl)amino]-[1,3]thiazolo[5,4-d]pyrimidin-2-yl}-5′-methoxy-6-methyl-[4,4′-bipyridine]-3-carboxamide], the IC50 was below 0.1 µM. On the same count and under the same terms, the value for `COc1cnc(Cl)cc1-c1cc(C)ncc1C(=O)Nc1nc2cnc(N3CCC(O)CC3)nc2s1` [Example 33, 2′-chloro-N-[5-(4-hydroxypiperidin-1-yl)-[1,3]thiazolo[5,4-d]pyrimidin-2-yl]-5′-methoxy-6-methyl-[4,4′-bipyridine]-3-carboxamide] was below 0.1 µM; that for `COc1ccccc1-c1cnccc1C(=O)Nc1nc2cncnc2s1` [Example 8, 3-(2-methoxyphenyl)-N-{[1,3]thiazolo[5,4-d]pyrimidin-2-yl}pyridine-4-carboxamide] was 0.1 to 1 µM. The same measure, in the same setting: for `COc1cnc(Cl)cc1-c1cc(C)ncc1C(=O)Nc1nc2cnc(NC(C)C)nc2s1` [Example 52, 2′-chloro-5′-methoxy-6-methyl-N-{5-[(propan-2-yl)amino]-[1,3]thiazolo[5,4-d]pyrimidin-2-yl}-[4,4′-bipyridine]-3-carboxamide] the value was below 0.1 µM; for `COc1cnc(Cl)cc1-c1cc(C)ncc1C(=O)Nc1nc2cnc(N3C[C@@H]4C[C@H]3CO4)nc2s1` [Example 34, 2′-chloro-5′-methoxy-6-methyl-N-{5-[(1S,4S)-2-oxa-5-azabicyclo[2.2.1]heptan-5-yl]-[1,3]thiazolo[5,4-d]pyrimidin-2-yl}-[4,4′-bipyridine]-3-carboxamide], below 0.1 µM. As for `COc1cnc(Cl)cc1-c1cc(C)ncc1C(=O)Nc1nc2cnc(N3CCOC[C@H]3C)nc2s1` [Example 50, 2′-chloro-5′-methoxy-6-methyl-N-{5-[(3R)-3-methylmorpholin-4-yl]-[1,3]thiazolo[5,4-d]pyrimidin-2-yl}-[4,4′-bipyridine]-3-carboxamide], the IC50 was below 0.1 µM. Consider `COc1cnc(C)cc1-c1cc(C)ncc1C(=O)Nc1nc2cnc(N3CCOCC3)nc2s1` [Example 92, 5′-methoxy-2′,6-dimethyl-N-[5-(morpholin-4-yl)-[1,3]thiazolo[5,4-d]pyrimidin-2-yl]-[4,4′-bipyridine]-3-carboxamide], for which the IC50 is below 0.1 µM. As to `COc1cnc(Cl)cc1-c1cc(C)ncc1C(=O)Nc1nc2cnc(C)nc2s1` [Example 91, 2′-chloro-5′-methoxy-6-methyl-N-{5-methyl-[1,3]thiazolo[5,4-d]pyrimidin-2-yl}-[4,4′-bipyridine]-3-carboxamide], the IC50 is below 0.1 µM.

Take `COc1ncc2nc(NC(=O)c3cnc(C)cc3-c3cc(Cl)ncc3OC)sc2n1` [Example 75, 2′-chloro-5′-methoxy-N-{5-methoxy-[1,3]thiazolo[5,4-d]pyrimidin-2-yl}-6-methyl-[4,4′-bipyridine]-3-carboxamide]: the IC50 is below 0.1 µM. Consider `COc1cnc(Cl)cc1-c1cc(C)ncc1C(=O)Nc1nc2ccc(Cl)cc2s1` [Example 1, N-(6-chloro-1,3-benzothiazol-2-yl)-4-(2-chloro-5-methoxy-4-pyridyl)-6-methyl-pyridine-3-carboxamide], for which the half-maximal inhibitory concentration (IC50) is below 0.1 µM.

For `COc1cnc(Cl)cc1-c1cc(C)ncc1C(=O)Nc1nc2cnc(C3=CCOCC3)nc2s1` [Example 87, 2′-chloro-N-[5-(3,6-dihydro-2H-pyran-4-yl)-[1,3]thiazolo[5,4-d]pyrimidin-2-yl]-5′-methoxy-6-methyl-[4,4′-bipyridine]-3-carboxamide], the IC50 was below 0.1 µM. The same measure, in the same setting: the value for `COc1ccccc1-c1cnccc1C(=O)Nc1nc2cnccc2s1` [Example 10, 3-(2-methoxyphenyl)-N-{[1,3]thiazolo[4,5-c]pyridin-2-yl}pyridine-4-carboxamide] was above 1 µM; that for `COc1cnc(Cl)cc1-c1cc(C)ncc1C(=O)Nc1nc2cnccc2s1` [Example 62, 2′-chloro-5′-methoxy-6-methyl-N-{[1,3]thiazolo[4,5-c]pyridin-2-yl}-[4,4′-bipyridine]-3-carboxamide] was below 0.1 µM; that for `COc1cnc(Cl)cc1-c1cc(C)ncc1C(=O)Nc1nc2ccc(N3CCOC3=O)cc2s1` [Example 59, 2′-chloro-5′-methoxy-6-methyl-N-[6-(2-oxo-1,3-oxazolidin-3-yl)-1,3-benzothiazol-2-yl]-[4,4′-bipyridine]-3-carboxamide] was below 0.1 µM. `COc1cnc(Cl)cc1-c1cc(C)ncc1C(=O)Nc1nc2ccc(C3(O)CCOC3)cc2s1` (centres unmarked) [Example 40, 2′-chloro-N-[6-(3-hydroxyoxolan-3-yl)-1,3-benzothiazol-2-yl]-5′-methoxy-6-methyl-[4,4′-bipyridine]-3-carboxamide]: the IC50 lay within 0.1 to 1 µM. Regarding `COc1cnc(Cl)cc1-c1cc(C)ncc1C(=O)Nc1nc2ccc(S(=O)(=O)N(C)C)cc2s1` [Example 66, 2′-chloro-N-[6-(dimethylsulfamoyl)-1,3-benzothiazol-2-yl]-5′-methoxy-6-methyl-[4,4′-bipyridine]-3-carboxamide], the IC50 is below 0.1 µM. Consider `COc1cnc(Cl)cc1-c1cc(C)ncc1C(=O)Nc1nc2ccc(N)cc2s1` [Example 36A, N-(6-amino-1,3-benzothiazol-2-yl)-4-(2-chloro-5-methoxy-4-pyridyl)-6-methyl-pyridine-3-carboxamide], for which the IC50 was in the range of 0.1 to 1 µM.

Still in this assay, the particulars now being: Table B; compounds of Experimental Part B, in vitro; read-out: Polθ ATPase assay IC50.
Consider `COc1cnc(Cl)cc1-c1cc(C)ncc1C(=O)Nc1nc2cnc(N3CC(C)(OC)C3)nc2s1` [Example 97, 2′-chloro-5′-methoxy-N-[5-(3-methoxy-3-methylazetidin-1-yl)-[1,3]thiazolo[5,4-d]pyrimidin-2-yl]-6-methyl-[4,4′-bipyridine]-3-carboxamide], for which the IC50 is below 0.1 µM. On the same count and under the same terms, the value for `COc1cnc(Cl)cc1-c1cc(C)ncc1C(=O)Nc1nc2cc(OCCN3CCOCC3)ccc2s1` [Example 111, 2′-chloro-5′-methoxy-6-methyl-N-{5-[2-(morpholin-4-yl)ethoxy]-1,3-benzothiazol-2-yl}-[4,4′-bipyridine]-3-carboxamide] was below 0.1 µM; that for `COc1cnc(Cl)cc1-c1cc(C)ncc1C(=O)Nc1nc2c(Br)cccc2s1` [Example 99, N-(4-bromo-1,3-benzothiazol-2-yl)-2′-chloro-5′-methoxy-6-methyl-[4,4′-bipyridine]-3-carboxamide] was below 0.1 µM. For the molecule `COc1cnc(Cl)cc1-c1cc(C)ncc1C(=O)Nc1nc2cc(OC(C)C)ccc2s1` [Example 112, 2′-chloro-5′-methoxy-6-methyl-N-[5-(propan-2-yloxy)-1,3-benzothiazol-2-yl]-[4,4′-bipyridine]-3-carboxamide], the IC50 was below 0.1 µM.
